Measured values as given in the NIST ThermoML archive (doi:10.1016/j.fluid.2010.08.022).
Numbers after ± are expanded uncertainties.

Settings: 101.33 kPa; for mass density: Vibrating tube method; for speed of sound: Sing-around technique in a fixed-path interferometer; for viscosity: 368.15 K, Visco Elite L rheometer
[1] = 327.41 K, Liquid crystal of unknown type
[2] = 327.66 K, Liquid crystal of unknown type
[3] = 327.91 K, Liquid crystal of unknown type
[4] = 328.16 K, Liquid crystal of unknown type
[5] = 328.41 K, Liquid crystal of unknown type
[6] = 328.66 K, Liquid crystal of unknown type
[7] = 328.91 K, Liquid crystal of unknown type
[8] = 329.16 K, Liquid crystal of unknown type
[9] = 329.41 K, Liquid crystal of unknown type
[10] = 329.66 K, Liquid crystal of unknown type
[11] = 329.91 K, Liquid crystal of unknown type
[12] = 330.16 K, Liquid crystal of unknown type
[13] = 330.41 K, Liquid crystal of unknown type
[14] = 330.66 K, Liquid crystal of unknown type
[15] = 330.91 K, Liquid crystal of unknown type
[16] = 331.16 K, Liquid crystal of unknown type
[17] = 331.4 K, Liquid crystal of unknown type
[18] = 331.66 K, Liquid crystal of unknown type
[19] = 331.91 K, Liquid crystal of unknown type
[20] = 332.16 K, Liquid crystal of unknown type
[21] = 332.41 K, Liquid crystal of unknown type
[22] = 332.66 K, Liquid crystal of unknown type
[23] = 332.91 K, Liquid crystal of unknown type
[24] = 333.16 K, Liquid crystal of unknown type
[25] = 333.41 K, Liquid crystal of unknown type
[26] = 333.66 K, Liquid crystal of unknown type
[27] = 333.91 K, Liquid crystal of unknown type
[28] = 334.16 K, Liquid crystal of unknown type
[29] = 334.41 K, Liquid crystal of unknown type
[30] = 334.66 K, Liquid crystal of unknown type
[31] = 334.91 K, Liquid crystal of unknown type
[32] = 335.16 K, Liquid crystal of unknown type
[33] = 335.41 K, Liquid crystal of unknown type
[34] = 335.66 K, Liquid crystal of unknown type
[35] = 335.91 K, Liquid crystal of unknown type
[36] = 336.16 K, Liquid crystal of unknown type
[37] = 336.41 K, Liquid crystal of unknown type
[38] = 336.66 K, Liquid crystal of unknown type
[39] = 336.91 K, Liquid crystal of unknown type
[40] = 337.16 K, Liquid crystal of unknown type
[41] = 337.4 K, Liquid crystal of unknown type
[42] = 337.66 K, Liquid crystal of unknown type
[43] = 337.91 K, Liquid crystal of unknown type
[44] = 338.16 K, Liquid crystal of unknown type
[45] = 338.41 K, Liquid crystal of unknown type
[46] = 338.66 K, Liquid crystal of unknown type
[47] = 338.91 K, Liquid crystal of unknown type
[48] = 339.16 K, Liquid crystal of unknown type
[49] = 339.41 K, Liquid crystal of unknown type
[50] = 339.66 K, Liquid crystal of unknown type
[51] = 339.91 K, Liquid crystal of unknown type
[52] = 340.15 K, Liquid crystal of unknown type
[53] = 340.41 K, Liquid crystal of unknown type
[54] = 340.66 K, Liquid crystal of unknown type
[55] = 340.91 K, Liquid crystal of unknown type
[56] = 341.16 K, Liquid crystal of unknown type
[57] = 341.41 K, Liquid crystal of unknown type
[58] = 341.65 K, Liquid crystal of unknown type
[59] = 341.91 K, Liquid crystal of unknown type
[60] = 342.16 K, Liquid crystal of unknown type
[61] = 342.41 K, Liquid crystal of unknown type
[62] = 342.66 K, Liquid crystal of unknown type
[63] = 342.9 K, Liquid crystal of unknown type
[64] = 343.15 K, Liquid crystal of unknown type

CCCCCCCC/C=C\CCCCCCCC(=O)[O-].OCC[NH2+]CCO [bis(2-hydroxyethyl)ammonium oleate]
mass density (327.16 K, Liquid crystal of unknown type): 946.149 ± 1.7 kg/m3
speed of sound [1]: 1427.8 ± 3.7 m/s
mass density [1]: 945.984 ± 1.7 kg/m3
speed of sound [2]: 1427 ± 3.7 m/s
mass density [2]: 945.82 ± 1.7 kg/m3
speed of sound [3]: 1426.2 ± 3.7 m/s
mass density [3]: 945.656 ± 1.7 kg/m3
speed of sound [4]: 1425.5 ± 3.7 m/s
mass density [4]: 945.489 ± 1.7 kg/m3
speed of sound [5]: 1424.7 ± 3.7 m/s
mass density [5]: 945.323 ± 1.7 kg/m3
speed of sound [6]: 1423.9 ± 3.7 m/s
mass density [6]: 945.159 ± 1.7 kg/m3
speed of sound [7]: 1423.2 ± 3.7 m/s
mass density [7]: 944.994 ± 1.7 kg/m3
speed of sound [8]: 1422.4 ± 3.7 m/s
mass density [8]: 944.829 ± 1.7 kg/m3
speed of sound [9]: 1421.6 ± 3.7 m/s
mass density [9]: 944.663 ± 1.7 kg/m3
speed of sound [10]: 1420.8 ± 3.7 m/s
mass density [10]: 944.498 ± 1.7 kg/m3
speed of sound [11]: 1420.1 ± 3.7 m/s
mass density [11]: 944.332 ± 1.7 kg/m3
speed of sound [12]: 1419.3 ± 3.7 m/s
mass density [12]: 944.168 ± 1.7 kg/m3
speed of sound [13]: 1418.5 ± 3.7 m/s
mass density [13]: 944.002 ± 1.7 kg/m3
speed of sound [14]: 1417.8 ± 3.7 m/s
mass density [14]: 943.835 ± 1.7 kg/m3
speed of sound [15]: 1417 ± 3.7 m/s
mass density [15]: 943.671 ± 1.7 kg/m3
speed of sound [16]: 1416.3 ± 3.7 m/s
mass density [16]: 943.506 ± 1.7 kg/m3
speed of sound [17]: 1415.5 ± 3.7 m/s
mass density [17]: 943.341 ± 1.7 kg/m3
speed of sound [18]: 1414.7 ± 3.7 m/s
mass density [18]: 943.175 ± 1.7 kg/m3
speed of sound [19]: 1414 ± 3.7 m/s
mass density [19]: 943.009 ± 1.7 kg/m3
speed of sound [20]: 1413.2 ± 3.7 m/s
mass density [20]: 942.844 ± 1.7 kg/m3
speed of sound [21]: 1412.5 ± 3.7 m/s
mass density [21]: 942.679 ± 1.7 kg/m3
speed of sound [22]: 1411.7 ± 3.7 m/s
mass density [22]: 942.512 ± 1.7 kg/m3
speed of sound [23]: 1410.9 ± 3.7 m/s
mass density [23]: 942.347 ± 1.7 kg/m3
speed of sound [24]: 1410.2 ± 3.7 m/s
mass density [24]: 942.18 ± 1.7 kg/m3
speed of sound [25]: 1409.4 ± 3.7 m/s
mass density [25]: 942.013 ± 1.7 kg/m3
speed of sound [26]: 1408.7 ± 3.7 m/s
mass density [26]: 941.847 ± 1.7 kg/m3
speed of sound [27]: 1407.9 ± 3.7 m/s
mass density [27]: 941.682 ± 1.7 kg/m3
speed of sound [28]: 1407.2 ± 3.7 m/s
mass density [28]: 941.516 ± 1.7 kg/m3
speed of sound [29]: 1406.4 ± 3.7 m/s
mass density [29]: 941.349 ± 1.7 kg/m3
speed of sound [30]: 1405.6 ± 3.7 m/s
mass density [30]: 941.183 ± 1.7 kg/m3
speed of sound [31]: 1404.9 ± 3.7 m/s
mass density [31]: 941.018 ± 1.7 kg/m3
speed of sound [32]: 1404.1 ± 3.7 m/s
mass density [32]: 940.851 ± 1.7 kg/m3
speed of sound [33]: 1403.4 ± 3.7 m/s
mass density [33]: 940.685 ± 1.7 kg/m3
speed of sound [34]: 1402.6 ± 3.7 m/s
mass density [34]: 940.519 ± 1.7 kg/m3
speed of sound [35]: 1401.8 ± 3.7 m/s
mass density [35]: 940.352 ± 1.7 kg/m3
speed of sound [36]: 1401.1 ± 3.7 m/s
mass density [36]: 940.185 ± 1.7 kg/m3
speed of sound [37]: 1400.3 ± 3.7 m/s
mass density [37]: 940.019 ± 1.7 kg/m3
speed of sound [38]: 1399.6 ± 3.7 m/s
mass density [38]: 939.852 ± 1.7 kg/m3
speed of sound [39]: 1398.8 ± 3.7 m/s
mass density [39]: 939.686 ± 1.7 kg/m3
speed of sound [40]: 1398 ± 3.7 m/s
mass density [40]: 939.519 ± 1.7 kg/m3
speed of sound [41]: 1397.3 ± 3.7 m/s
mass density [41]: 939.352 ± 1.7 kg/m3
speed of sound [42]: 1396.5 ± 3.7 m/s
mass density [42]: 939.185 ± 1.7 kg/m3
speed of sound [43]: 1395.8 ± 3.7 m/s
mass density [43]: 939.017 ± 1.7 kg/m3
speed of sound [44]: 1395 ± 3.7 m/s
mass density [44]: 938.852 ± 1.7 kg/m3
speed of sound [45]: 1394.3 ± 3.7 m/s
mass density [45]: 938.684 ± 1.7 kg/m3
speed of sound [46]: 1393.5 ± 3.7 m/s
mass density [46]: 938.517 ± 1.7 kg/m3
speed of sound [47]: 1392.8 ± 3.7 m/s
mass density [47]: 938.351 ± 1.7 kg/m3
speed of sound [48]: 1392 ± 3.7 m/s
mass density [48]: 938.182 ± 1.7 kg/m3
speed of sound [49]: 1391.2 ± 3.7 m/s
mass density [49]: 938.014 ± 1.7 kg/m3
speed of sound [50]: 1390.5 ± 3.7 m/s
mass density [50]: 937.846 ± 1.7 kg/m3
speed of sound [51]: 1389.7 ± 3.7 m/s
mass density [51]: 937.68 ± 1.7 kg/m3
speed of sound [52]: 1389 ± 3.7 m/s
mass density [52]: 937.513 ± 1.7 kg/m3
speed of sound [53]: 1388.2 ± 3.7 m/s
mass density [53]: 937.345 ± 1.7 kg/m3
speed of sound [54]: 1387.5 ± 3.7 m/s
mass density [54]: 937.177 ± 1.7 kg/m3
speed of sound [55]: 1386.7 ± 3.7 m/s
mass density [55]: 937.009 ± 1.7 kg/m3
speed of sound [56]: 1386 ± 3.7 m/s
mass density [56]: 936.844 ± 1.7 kg/m3
speed of sound [57]: 1385.2 ± 3.7 m/s
mass density [57]: 936.674 ± 1.7 kg/m3
speed of sound [58]: 1384.5 ± 3.7 m/s
mass density [58]: 936.507 ± 1.7 kg/m3
speed of sound [59]: 1383.8 ± 3.7 m/s
mass density [59]: 936.339 ± 1.7 kg/m3
speed of sound [60]: 1383 ± 3.7 m/s
mass density [60]: 936.171 ± 1.7 kg/m3
speed of sound [61]: 1382.3 ± 3.7 m/s
mass density [61]: 936.003 ± 1.7 kg/m3
speed of sound [62]: 1381.5 ± 3.7 m/s
mass density [62]: 935.836 ± 1.7 kg/m3
speed of sound [63]: 1380.8 ± 3.7 m/s
mass density [63]: 935.668 ± 1.7 kg/m3
speed of sound [64]: 1380.1 ± 3.7 m/s
mass density [64]: 935.491 ± 1.7 kg/m3
viscosity (Liquid crystal of unknown type): 37.2 ± 0.7 mPa·s
viscosity (Liquid): 37.2 ± 0.7 mPa·s
